Measurements reported in publication PMC9863987, “Identification of Aryl Polyamines Derivatives as Anti-Trypanosoma cruzi Agents Targeting Iron Superoxide Dismutase” (Pharmaceutics, 2022).
Structures can show the parent of a compound that is named as a salt.

Experiments:
[1] = system: Vero cells; test: Cytotoxicity test on mammalian Vero cells (resazurin); format: cell-based; details: Chlorocebus sabaeus, 48 h treatment + 24 h resazurin, mean of three ± SD, read-out: Toxicity IC50 Vero Cell
Protocol: Cytotoxicity against mammalian Vero cells (EACC No. 84113001) was tested as previously reported. In brief, 1.25 × 10^4 Vero cells·mL^−1, cultured at 37 °C, were treated by adding the compounds in serial dilutions from 400 to 1 µM in 96-well plates (200 µL·well^−1) for 48 h. BZN and untreated controls were also included in triplicate. Later, 20 μL of resazurin sodium salt (Sigma-Aldrich) was added, and the plates were incubated for another 24 h. Finally, cell viability was determined following the same procedure as described to assess the trypanocidal activity in the epimastigotes.

[2] = system: T. cruzi Arequipa strain epimastigotes; test: Screening against extracellular epimastigotes, Arequipa strain (resazurin); format: cell-based, Trypanosoma cruzi; details: for IC50: Trypanosoma cruzi, epimastigotes, 48 h treatment + 24 h resazurin, mean of three ± SD, read-out: Activity IC50 T. cruzi Arequipa Strain E; for Selectivity Index T. cruzi Arequipa Strain E: IC50 Vero cells/IC50 epimastigotes
Protocol: (§1) Three different T. cruzi […] strains—MHOM/Pe/2011/Arequipa, discrete typing unit (DTU) V [26]; IRHOD/CO/2008/SN3, DTU I [27]; TINF/CH/1956/Tulahuen, DTU VI [26]—were grown at 28 °C in Gibco® RPMI 1640 Medium supplemented as previously reported, and used for in vitro screening.
(§2) Trypanocidal activity against epimastigotes was tested as previously reported. In brief, 5 × 10^5 mL^−1 epimastigotes culture medium were treated by adding the compounds in serial dilutions from 100 to 0.2 µM in 96-well plates (200 µL·well^−1) for 48 h. BZN and untreated growth control were also included in triplicate. Later, 20 μL of resazurin sodium salt (Sigma-Aldrich, St. Louis, MO, USA) was added, and the plates were incubated for another 24 h. Finally, the absorbance of the wells was measured at 570/600 nm and related to the control. The trypanocidal activity was expressed as the IC50 (inhibitory concentration 50) value using GraphPad Prism 6 software.

[3] = system: T. cruzi Tulahuen strain epimastigotes; test: Screening against extracellular epimastigotes, Tulahuen strain (resazurin); format: cell-based, Trypanosoma cruzi; details: for IC50: Trypanosoma cruzi, TULAHUEN, epimastigotes, 48 h treatment + 24 h resazurin, mean of three ± SD, read-out: Activity IC50 T. cruzi Tulahuen Strain E; for Selectivity Index T. cruzi Tulahuen Strain E: IC50 Vero cells/IC50 epimastigotes
Protocol: as §1, §2

[4] = system: T. cruzi SN3 strain epimastigotes; test: Screening against extracellular epimastigotes, SN3 strain (resazurin); format: cell-based, Trypanosoma cruzi; details: for IC50: Trypanosoma cruzi, epimastigotes, 48 h treatment + 24 h resazurin, mean of three ± SD, read-out: Activity IC50 T. cruzi SN3 Strain E; for Selectivity Index T. cruzi SN3 Strain E: IC50 Vero cells/IC50 epimastigotes
Protocol: as §1, §2

[5] = system: T. cruzi Tulahuen strain trypomastigotes; test: Screening against bloodstream trypomastigotes, Tulahuen strain (resazurin); format: cell-based, Trypanosoma cruzi
[6] = system: T. cruzi Tulahuen strain amastigotes; test: Screening against intracellular amastigotes in Vero cells, Tulahuen strain (Giemsa counting); format: cell-based, Trypanosoma cruzi
Protocol: (§3) TINF/CH/1956/Tulahuen, DTU VI [26]—were grown at 28 °C in Gibco® RPMI 1640 Medium supplemented as previously reported, and used for in vitro screening. Trypanocidal activity against amastigotes was tested as previously reported. In brief, bloodstream trypomastigotes (BTs), obtained by cardiac puncture from infected BALB/c mice, were used to infect 1 × 10^4 Vero cells·well^−1 in 24-well plates with rounded coverslips at a multiplicity of infection (MOI) ratio of 10:1. After 24 h of infection, non-internalized trypomastigotes were washed and the infected cells were treated by adding the compounds in serial dilutions from 50 to 0.5 µM in […] for 72 h. BZN and untreated growth controls were also included in triplicate. Later, the number of amastigotes and infected cells were determined in Giemsa stained preparations by analysing 500 host cells randomly distributed in microscopic fields. The trypanocidal activity was expressed as the IC50 using GraphPad Prism 6 software (version 6.07).

[7] = system: T. cruzi Arequipa strain amastigotes; test: Screening against intracellular amastigotes in Vero cells, Arequipa strain (Giemsa counting); format: cell-based, Trypanosoma cruzi
Protocol: as §3

[8] = system: T. cruzi Arequipa strain trypomastigotes; test: Screening against bloodstream trypomastigotes, Arequipa strain (resazurin); format: cell-based, Trypanosoma cruzi
[9] = IC50 Vero cells/IC50 trypomastigotes
[10] = IC50 Vero cells/IC50 amastigotes

IC50 [2] [µM] | IC50 [3] [µM] | IC50 [4] [µM] | SMILES | CC50 [1] [µM] | also measured
12.8 ± 1.7 | 30 ± 2.7 | 21.4 ± 2 | CN(CCNCc1ccccn1)CCNCc1ccccn1 [Compound 11] | 23.3 ± 2.1 | –
12 ± 1.1 | 16.1 ± 1.7 | 10 ± 1.2 | O=C(NCCN(CCNC(=O)c1ccccn1)Cc1ccc2ccccc2c1)c1ccccn1 [Compound 6] | 63.2 ± 5.7 | –
104 ± 12.8 | 95.2 ± 8.4 | 87.5 ± 9 | CN(CCNCc1ccncc1)CCNCc1ccncc1 [Compound 12] | 188 ± 20.4 | –
12.7 ± 1.4 | 21 ± 1.8 | 5.5 ± 4.9 | O=S(=O)(c1cccc2cccnc12)N(CCNCc1ccccn1)CCNCc1ccccn1 [Compound 13] | 28.3 ± 2.4 | –
48.1 ± 3.9 | 10 ± 1.1 | 36.4 ± 3.4 | CN(C)c1cccc2c(S(=O)(=O)N(CCNCc3cccnc3)CCNCc3cccnc3)cccc12 [Compound 8] | 136 ± 14.8 | Selectivity Index T. cruzi Tulahuen Strain T [5, 9]: 11.2; IC50 ([5]; Trypanosoma cruzi, TULAHUEN, trypomastigotes, 24 h + 4 h resazurin, mean of three ± SD): 12.2 ± 1.2 µM; Selectivity Index T. cruzi Tulahuen Strain A [6, 10]: 8.0; IC50 ([6]; Trypanosoma cruzi, TULAHUEN, amastigotes in Vero cells, 72 h, mean of three ± SD): 17 ± 1.5 µM; Selectivity Index T. cruzi Arequipa Strain E [2]: 2.8; Selectivity Index T. cruzi Tulahuen Strain E [3]: 13.7; Selectivity Index T. cruzi SN3 Strain E [4]: 3.7
15.2 ± 1.8 | 12.9 ± 1.8 | 14.3 ± 1.8 | O=S(=O)(c1cccc2ccccc12)N(CCNCc1ccccn1)CCNCc1ccccn1 [Compound 10] | 14.9 ± 1.3 | –
18.3 ± 1.4 | 22.4 ± 2.1 | 25.8 ± 2.7 | c1cc2nc(c1)CNCCN(CCNCc1ccc3[nH]ncc3c1)CCNC2 [Compound 14] | 60.3 ± 7 | –
18.7 ± 1.6 | 19.2 ± 1.7 | 21.8 ± 1.9 | c1ccc2cc(CN(CCNCc3ccncc3)CCNCc3ccncc3)ccc2c1 [Compound 3] | 25.8 ± 2.7 | –
12.4 ± 1.2 | 39.3 ± 4.2 | 59.6 ± 6.2 | CN(C)c1cccc2c(S(=O)(=O)N(CCNC(=O)c3ccccn3)CCNC(=O)c3ccccn3)cccc12 [Compound 9] | 49.3 ± 5 | –
102 ± 9.8 | 129 ± 14.7 | 155 ± 14.9 | c1cc(CNCCN2CCNCc3cccc(n3)CNCC2)nc(CNCCN2CCNCc3cccc(n3)CNCC2)c1 [Compound 16] | 136 ± 14.7 | –
2.9 ± 0.3 | 15.8 ± 1.4 | 5.7 ± 0.5 | c1cncc(CNCCN(CCNCc2cccnc2)Cc2ccc3ccccc3c2)c1 [Compound 2] | 38.5 ± 4.1 | Selectivity Index T. cruzi Arequipa Strain A [7, 10]: 6.2; IC50 ([7]; Trypanosoma cruzi, amastigotes in Vero cells, 72 h, mean of three ± SD): 6.2 ± 0.6 µM; Selectivity Index T. cruzi Arequipa Strain E [2]: 13.5; Selectivity Index T. cruzi Tulahuen Strain E [3]: 2.4; Selectivity Index T. cruzi SN3 Strain E [4]: 6.7; Selectivity Index T. cruzi Arequipa Strain T [8, 9]: 8.0; IC50 ([8]; Trypanosoma cruzi, trypomastigotes, 24 h + 4 h resazurin, mean of three ± SD): 4.8 ± 0.5 µM
28.3 ± 2.4 | 26 ± 2.7 | 27.1 ± 2.1 | c1ccc(CNCCN(CCNCc2ccccn2)Cc2ccc3ccccc3c2)nc1 [Compound 1] | 58.1 ± 6 | –
25.2 ± 2.7 | 22.6 ± 3.3 | 11 ± 1 | c1ccc2cc(CN(CCNCc3ccnc4ccccc34)CCNCc3ccnc4ccccc34)ccc2c1 [Compound 4, 1,7-Bis(4-quinolylmethyl)-4-(2-naphthylmethyl)-1,4,7-triazaheptane Pentahydrochloride] | 5.3 ± 0.4 | –
11.5 ± 1.1 | 12.1 ± 1.1 | 10.4 ± 1.1 | CN(C)c1cccc2c(S(=O)(=O)N(CCNCc3ccccn3)CCNCc3ccccn3)cccc12 [Compound 7] | 41.3 ± 3.7 | –
